Assay results published in patent publication US7195890B2, “Methods and compositions for modulating proteins modified in preconditioning against ischemia/hypoxia” (Queen's University at Kingston, priority 2003, dated 2007).

Test system: rabbit ventricular myocytes
Experiment: Two-dimensional gel electrophoresis proteomic analysis of protein modifications in pharmacologically preconditioned isolated ventricular myocytes
Type: cell-based
Details: 100 μmol/L, 60 minutes, 37° C.; for level of ADP ribosyl hydrolase: drug treated extracts relative to matching control extracts
Source text: Protein modifications occurring during preconditioning were identified by a multi-tiered two-dimensional gel electrophoresis approach (see FIG. 3) and subsequent analysis of the cytoplasmic and TFA extracts of adenosine and diazoxide-treated isolated cardiomyocytes (n=4) at concentrations capable of invoking preconditioning. […] The modified proteins identified herein are referred to as preconditioning proteins. Ventricular myocytes from New Zealand White rabbits (weighing 1 to 2 kg) were isolated by collagenase dissociation, as described previously by Liu et al. (Circ. Res. 1996 78:443–454). Hearts were excised, then perfused with collagenase (1.0 mg/mL, Worthington type II) for 14 minutes at a maintained perfusion pressure of 75 mm Hg on a Langendorff apparatus, yielding>50% Ca^2+-tolerant ventricular myocytes. Cell isolation was followed directly by pharmacological preconditioning, which was carried out by treatment with 100 μmol/L adenosine (Sigma) or with 100 μmol/L diazoxide (Sigma) for 60 minutes in a 37° C. water bath, as described previously by Liu et al. supra. Untreated cells were prepared concurrently as drug-free controls. Equivalent 25 μL aliquots of cells (containing ˜30 mg/mL of protein as determined by Lowry assay (Lowry, O. H. J. Biol. Chem. 1951 193:265–275) were frozen and stored at −80° C. until analysis. All steps in this Protein extraction protocol, referred to herein as “In Sequence” and depicted in FIG. 3, produce physiological pH (cytosolic) and acidic pH enriched extracts were carried out at 4° C., and all centrifugations were conducted at 16000×g for 2 minutes at 4° C. Myocyte proteins were first extracted by two rounds of homogenization in 100 μL of HEPES extraction buffer, consisting of (in mmol/L) HEPES 25 (pH 7.4), NaF 50, Na3VO4 0.25, phenylmethylsulfonyl fluoride 0.25, EDTA 0.5, and (in μmol/L) leupeptin 1.25, pepstatin A 1.25. Following homogenization and centrifugation, the supernatants were pooled and saved as the cytosolic extract. The remaining pellet was subjected to further extraction by two rounds of homogenization in 50 μL of acid extraction buffer, consisting of 1% v/v trifluoroacetic acid (TFA) and 1 mmol/L Tris(2-carboxyethylphosphine)hydrochloride (pH ˜2.0). Supernatants were again pooled, and saved as the acid extract. The two extracts and remaining pellet were frozen and stored at −80° C. Isoelectric focusing (IEF) of cytosolic and TFA extracts were carried out using a Protean® IEF cell (Bio-Rad) according to the manufacturer's protocol. Protein loads ranging from 5 up to 250 μg per gel were added to the following rehydration buffers: for cytosolic extracts, 8 M urea, 2.5 M thiourea, 4% CHAPS, 2 mM EDTA, and 25 mM DTT, and in the case of pH 6–9 strips, CHAPS and DTT were substituted by 4% ASB-14 and 5.4% (w/v) 2-hydroxyethyl disulfide, respectively; for acidic extracts, 8 M urea, 4% CHAPS, and 25 mM DTT. Immobilized pH gradient (IPG) Ready Strips™ (170 mm pH 4–7, 6–9, or 3–10 linear gradient, Bio-Rad) were actively rehydrated at 50 volts (V) for 10 hours to enhance protein uptake, then subjected to the following conditions using a rapid voltage ramping method: 100 V for 25 Volt-hours (Vh), 500 V for 125 Vh, 1000 V for 250 Vh, and 8000 V for 65 kVh. A Peltier temperature control platform maintained gels at 20° C. throughout IEF. Focused gels were stored at −20° C. prior to sodium dodecyl sulfate-polyacrylamide gel electrophoresis (SDS-PAGE). For SDS-PAGE, IPG strips were incubated for 10 minutes in equilibration buffer (50 mmol/L Tris-HCl, pH 8.8, 6 mol/L urea, 30% v/v glycerol, 2% w/v SDS) supplemented with 10 mg/mL DTT, followed by a 10 minute incubation in equilibration buffer supplemented with 25 mg/mL iodoacetamide, then rinsed once with SDS-PAGE buffer (25 mmol/L Tris, 192 mmol/L glycine, pH 8.3, 0.1% w/v SDS). IEF strips were then embedded in a 5% acrylamide stacking gel and the proteins were resolved by 10 or 12.5% SDS-PAGE using a Protean® II XL system (Bio-Rad). […]

[1] = 2-D gels vs untreated control myocytes, n=4

SMILES | level of 24 kDa subunit (mitochondrial precursor) of Complex I [1] | level of 30 kDa subunit (mitochondrial precursor) of Complex I [1] | level of HSP27 [1] | level of NG-dimethylarginine dimethylaminohydrolase (DDAH) [1] | level of RNA binding protein regulatory subunit (DJ-1) [1] | level of aldehyde dehydrogenase [1] | level of core protein I of Complex III [1] | level of isocitrate dehydrogenase NAD+ specific subunit alpha (IDH) [1] | level of metaxin 2 [1] | level of prohibitin [1] | level of succinyl CoA ligase [ADP forming] beta chain [1] | level of δ chain (mitochondrial precursor) of the F1 portion of Complex V [1] | extent of post-translational modification of the β chain of F1 portion (mitochondrial precursor) of Complex V (2-D gels, silver stain or western blot, vs control, two additional more acidic spots) | level of ADP ribosyl hydrolase | level of 23 kDa subunit (mitochondrial precursor) of Complex I [1] | level of d chain (mitochondrial precursor) of the F0 portion of Complex V [1] | level of dihydrolipoamide succinyltransferase [1] | post-translational modification of protein X (E3 binding protein of the pyruvate dehydrogenase complex) [1] | sarcalumenin (58 kDa isoform) levels (HEPES extract, 2-D gels vs untreated control myocytes)
Nc1ncnc2c1ncn2[C@@H]1O[C@H](CO)[C@@H](O)[C@H]1O [adenosine] | increases | increases | did not, however, observe a change | decreases | increased | increased | decreased | increase | reduced | increase | increase | increases | increase | increased |  |  |  |  | 
CC1=NS(=O)(=O)c2cc(Cl)ccc2N1 [diazoxide] | increased | increased | increase | increased | increased | increased | decreased | increases | reduced |  |  | increased |  | increased | increased | increased | decrease | increases | decrease
